Results from patent US20100240713A1, “AROMATIC AND HETEROAROMATIC COMPOUNDS USEFUL IN TREATING IRON DISORDERS” (XENON PHARMACEUTICALS INC., priority 2007, published 2010).
Counter-ions that a name gives are not always drawn.

Target: T1, DMT1 (Homo sapiens, UniProt P49281)
T1 sequence (P49281 1-568): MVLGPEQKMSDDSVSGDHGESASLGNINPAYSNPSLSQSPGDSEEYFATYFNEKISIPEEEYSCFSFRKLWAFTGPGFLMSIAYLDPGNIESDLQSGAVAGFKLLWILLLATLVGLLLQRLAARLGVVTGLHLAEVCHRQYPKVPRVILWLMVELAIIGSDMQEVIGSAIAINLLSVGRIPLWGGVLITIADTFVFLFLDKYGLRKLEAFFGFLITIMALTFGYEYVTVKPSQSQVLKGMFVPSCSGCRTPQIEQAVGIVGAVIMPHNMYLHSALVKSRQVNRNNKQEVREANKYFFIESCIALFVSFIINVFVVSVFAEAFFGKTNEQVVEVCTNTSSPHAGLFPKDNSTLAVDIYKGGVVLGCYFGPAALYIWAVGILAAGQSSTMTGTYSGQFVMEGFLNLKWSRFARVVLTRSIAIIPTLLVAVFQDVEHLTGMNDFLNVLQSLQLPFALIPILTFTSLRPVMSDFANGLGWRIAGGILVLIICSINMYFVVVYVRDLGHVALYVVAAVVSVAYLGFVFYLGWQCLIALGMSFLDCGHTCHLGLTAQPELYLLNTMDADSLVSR
Assay: DMT1 activity assay (IC50 activity level, Table 1)
Type: cell-based
Settings: inhibition of DMT1
Text: This example discloses various in vitro assay for testing and profiling test agents against DMT1 stably expressed in cells of either an endogenous or recombinant origin. These assays can use stable cell lines overexpressing DMT1 or intestinal cells and intestinal tissue expressing endogenous DMT1. DMT1 function could also be assessed in other cell types that express DMT1. Of greatest relevance would be the erythrocytes (e.g. K562 cells) or hepatocytes (e.g. […]).
DMT1 function can be assessed in a number of ways, including monitoring fluorescence changes of an iron fluorophore (e.g. calcein), monitoring uptake of radiolabelled iron (^55Fe or ^59Fe) (Picard et al., J. Biol. Chem., 2000, 275(46):35738-45 and Wetli et al., Chem. Biol. 2006 September; 13(9):965-72), or by assessing the current or transport of iron and other metals into the cells or tissues using standard electrophysiological techniques (Gunshin et al., Nature, 1997, 388(6641):482-8.).
Variations of these assays involve alterations of incubation times, the iron status of the cells and tissues (which may be modulated by chemical chelators or by harvesting from iron deficient animals), the metal cation detected and the pH of the reaction can generally be made by conventional techniques known to those skilled in the art.
The Example numbers provided in Table 1 correspond to the Examples herein: […]

IC50 | SMILES
≥ 1000 nM | Cc1c(C)c(CSC(=N)N)c(C)c(CSC(=N)N)c1C [Example 3.5, (2,4,5,6-tetramethyl-1,3-phenylene)bis(methylene)dicarbamimidothioate dihydrochloride]
≥ 1000 nM | N=C(N)SCc1n[nH]c(CSC(=N)N)n1 [Example 3.8, (1H-1,2,4-triazole-3,5-diyl)bis(methylene)dicarbamimidothiodate dihydrochloride]
100 to 1000 nM | Cc1cc(C)c(CSC(=N)N)c(C)c1CSC(=N)N [Example 3, (2,4,6-trimethyl-1,3-phenylene)bis(methylene)dicarbamimidothioate dihydrochloride]
≥ 1000 nM | COc1c(CSC(=N)N)cc(C)cc1CSC(=N)N [Example 3.18, (2-methoxy-5-methyl-1,3-phenylene)bis(methylene)dicarbamimidothioate dihydrobromide]
≥ 1000 nM | Cc1c(CSC(=N)N)sc(CSC(=N)N)c1C [Example 6.3, (3,4-dimethylthiophene-2,5-diyl)bis(methylene)dicarbamimidothioate dihydrobromide]
≥ 1000 nM | CC(C)(SC(=N)N)c1cccc(C(C)(C)SC(=N)N)c1 [Example 6, 2-{1-[3-(1-carbamimidoylsulfanyl-1-methylethyl)phenyl]-1-methylethyl}-isothiourea dihydrobromide]
≥ 1000 nM | N=C(N)SCc1c(Cl)c(Cl)c(Cl)c(CSC(=N)N)c1Cl [Example 3.6, (2,4,5,6-tetrachloro-1,3-phenylene)bis(methylene)dicarbamimidothioate dihydrochloride]
≥ 1000 nM | N=C(N)SCc1nnc(CSC(=N)N)n1N [Example 3.7, (4-amino-4H-1,2,4-triazole-3,5-diyl)bis(methylene)dicarbamimidothioate dihydrochloride]
≥ 1000 nM | N=C(N)SCc1sc(CSC(=N)N)c(-c2ccccc2)c1-c1ccccc1 [Example 3.10, (3,4-diphenylthiophene-2,5-diyl)bis(methylene)dicarbamimidothioate dihydrobromide]
≥ 1000 nM | N=C(N)SCc1ccccc1CSC(=N)N [Example 3.15, (1,2-phenylene)bis(methylene)dicarbamimidothioate dihydrobromide]
100 to 1000 nM | Cc1c(O)c(C)c(CSC(=N)N)c(C)c1CSC(=N)N [Example 3.19, (5-hydroxy-2,4,6-trimethyl-1,3-phenylene)bis(methylene) dicarbamimidothioate dihydrochloride]
≥ 1000 nM | N=C(N)SCc1cccc(CSC(=N)N)c1 [Example 3.2, 1,3-phenylenebis(methylene)dicarbamimidothioate dihydrobromide]
≥ 1000 nM | Cc1c(CSC(=N)N)sc2sc(CSC(=N)N)c(C)c12 [Example 6.4, (3,4-dimethylthieno[2,3-b]thiophene-2,5-diyl)bis(methylene)dicarbamimidothioate dihydrobromide]
≥ 1000 nM | N=C(N)SC(=O)c1sc(C(=O)SC(=N)N)c(Cl)c1Cl [Example 9, 2-(5-carbamimidoylsulfanecarbonyl-3,4-dichlorothiophene-2-carbonyl)isothiourea dihydrochloride]
≥ 1000 nM | COc1ccc(CSC(=N)N)cc1CSC(=N)N [Example 6.5, (4-methoxy-1,3-phenylene)bis(methylene)dicarbamimidothioate dihydrobromide]
≥ 1000 nM | CC(C)c1cc(C(C)C)c(CSC(=N)N)cc1CSC(=N)N [Example 3.1, (4,6-diisopropyl-1,3-phenylene)bis(methylene)dicarbamimidothioate dihydrobromide]
≥ 1000 nM | Cc1c(CSC(=N)N)c(C)c(CSC(=N)N)c(C)c1CSC(=N)N [Example 3.11, (2,4,6-trimethylbenzene-1,3,5-triyl)tris(methylene) tricarbamimidothioate trihydrobromide]

IC50 | SMILES
≥ 1000 nM | Cc1cc(C)c(CNC(=N)N)c(C)c1CNC(=N)N [Example 1, N-(3-guanidinomethyl-2,4,6-trimethylbenzyl)guanidine, bis(p-toluenesulfonate)]
≥ 1000 nM | Cc1nc(C)c(CSC(=N)N)c(C)c1CSC(=N)N [Example 8, (2,4,6-trimethylpyridine-3,5-diyl)bis(methylene)dicarbamimidothioate dihydrochloride]
≥ 1000 nM | N=C(N)SCc1ccc2ccccc2c1CSC(=N)N [Example 3.20, naphthalene-1,2-diylbis(methylene)dicarbamimidothioate dihydrobromide]
≥ 1000 nM | Cc1cc(CSC(=N)N)c(O)c(CSC(=N)N)c1 [Example 6.2, (2-hydroxy-5-methyl-1,3-phenylene)bis(methylene)dicarbamimidothioate dihydrobromide]
≥ 1000 nM | Cc1c(C)c(C)c(CSC(=N)N)c(CSC(=N)N)c1C [Example 3.22, (3,4,5,6-tetramethyl-1,2-phenylene)bis(methylene)dicarbamimidothioate dihydrobromide]
≥ 1000 nM | COc1cc(CSC(=N)N)cc(CSC(=N)N)c1 [Example 6.6, (5-methoxy-1,3-phenylene)bis(methylene)dicarbamimidothioate dihydrobromide]
≥ 1000 nM | CCOC(=O)c1cc(C(=O)OCC)c(CSC(=N)N)cc1CSC(=N)N [Example 3.4, diethyl 4,6-bis(carbamimidoylthiomethyl)isophthalate dihydrobromide]
≥ 1000 nM | Cc1cc(CSC(=N)N)cc(CSC(=N)N)c1 [Example 3.3, (5-methyl-1,3-phenylene)bis(methylene)dicarbamimidothioate dihydrobromide]
≥ 1000 nM | N=C(N)SCc1cccc2cccc(CSC(=N)N)c12 [Example 3.13, naphthalene-1,8-diylbis(methylene)dicarbamimidothioate dihydrobromide]
100 to 1000 nM | Cc1cc(C)c(CSC(=N)N)cc1CSC(=N)N [Example 3.16, (4,6-dimethyl-1,3-phenylene)bis(methylene)dicarbamimidothioate dihydrochloride]
≥ 1000 nM | Cc1c(CSC(=N)N)cc(CSC(=N)N)c(C)c1Br [Example 3.17, (5-bromo-4,6-dimethyl-1,3-phenylene)bis(methylene) dicarbamimidothioate dihydrochloride]
100 to 1000 nM | Cc1c(CSC(=N)N)cccc1CSC(=N)N [Example 3.21, (2-methyl-1,3-phenylene)bis(methylene)dicarbamimidothioate dihydrobromide]
≥ 1000 nM | N=C(N)Sc1cccc(SC(=N)N)c1 [Example 5, 1,3-phenylene dicarbamimidothioate dihydroiodide]
≥ 1000 nM | N=C(N)SCc1ccc(CSC(=N)N)s1 [Example 3.9, thiophene-2,5-diylbis(methylene)dicarbamimidothioate dihydrochloride]
≥ 1000 nM | N#Cc1c(CSC(=N)N)cccc1CSC(=N)N [Example 3.14, (2-cyano-1,3-phenylene)bis(methylene)dicarbamimidothioate dihydrobromide]
100 to 1000 nM | Cc1cc(C)c(C(C)SC(=N)N)c(C)c1C(C)SC(=N)N (stereo not shown) [Example 6.1, 2-{1-[3-(1-carbamimidoylsulfanylethyl)-2,4,6-trimethylphenyl]ethyl}-isothiourea dihydrobromide]
≥ 1000 nM | N=C(N)SCc1cccc(CSC(=N)N)n1 [Example 3.12, pyridine-2,6-diylbis(methylene)dicarbamimidothioate dihydrobromide]
